# Like-named read-outs stand apart in the source and are kept apart here. [tNP] = thio-phosphoramidate internucleoside linkage; {Palm} = palmitoyl group
# How the values were obtained:
# [1] = tested on: A549 human lung cancer cells; experiment: Tumor growth in xenograft animal model; assay type: in vivo, mice; settings: 2.5 mg/kg every day
# Experimental: Doses of 2.5 mg/kg of 6-thio-dG and 2.5 mg/kg of 6-thio-G were injected every day into mice after tumor implantation and providing time for tumor initiation. DMSO injections were used for the control. The volume of the tumor was measured.
# [2] = tested on: BJ fibroblast cells; experiment: Telomere length assay (TRF), long-term culture; assay type: cell-based, human; settings: BJ fibroblasts, 10 weeks
# Experimental: (§1) For long-term cellular experiments, HCT116 (1,000 cells/cm^2) and BJ (10,000 cells/cm^2) cells were fed with 6-thio-dG (1, 3, 10 μM) containing medium every three days. The cells were counted and replated every week for 10-16 weeks. Additionally, HCT116 cells (1,000 cells/cm^2) were fed with 6-thio-G (1, 3, 10 μM) every three days and each week cells were counted, collected for TRF (Telomere Restriction Fragment) analysis and replated. HCT116 cells, following treatment with 10 μM 6-thio-dG for 12 weeks, were then treated with a combination of 10 μM 6-thio-dG and […] GRN163L for 2-4 weeks.
# 1×10^6 cells were collected and washed with PBS. DNA was isolated using the manufacturer's instructions (Qiagen, Valencia, Calif.). 2.5 μg DNA was digested with six different restriction enzymes (HhaI, HinfI, MspI, HaeIII, RsaI, AluI) (New England Bio, Ipswich, Mass.) and incubated at 37° C. overnight. […] Gels were exposed to a PhosphorImager screen overnight and analyzed using a Typhoon PhosphorImager scanner system (Molecular Dynamics).
# To determine if 6-thio-dG and 6-thio-G causes progressive telomere shortening, telomere lengths of treated cells were evaluated by TRF assay. […]
# [3] = assay type: in vivo
# Experimental: Six WT mice were treated with 1.67 mg of 6-thio-dG/kg of body weight daily. Six WT mice were treated with 1.67 mg of 6-thio-G/kg of body weight daily. Six WT mice were treated with 5 mg of 6-thio-dG/kg of body weight daily. Six WT mice were treated with 5 mg of 6-thio-G/kg of body weight daily. The mice were given the appropriate dosage and weighed daily for 25 days. […] In comparison, the mice receiving 6-thio-G at the same dose lost between 1-2 grams (6-12% of initial weight) over the course of the 25 day treatment. […] In comparison, the mice receiving 6-thio-G at the same dose loss around 2 grams and all mice died by the 15th day of treatment.
# [4] = tested on: HCT116 cells; experiment: Telomere length assay (TRF), long-term culture; assay type: cell-based, human
# Experimental: as §1
# 1×10^6 cells were collected and washed with PBS. DNA was isolated using the manufacturer's instructions (Qiagen, Valencia, Calif.). 2.5 μg DNA was digested with six different restriction enzymes (HhaI, HinfI, MspI, HaeIII, RsaI, AluI) (New England Bio, Ipswich, Mass.) and incubated at 37° C. overnight. Digested DNA was separated on a 0.7% agarose gel overnight at 70 V. The terminal restriction fragment (TRF) gel was denatured for 20 min in denaturating solution (0.5 M NaOH, 1.5 M NaCl, pH 13.2) and dried on Whatman 3 MM paper under vacuum for 3 hours at 56° C. The gel was neutralized for 15 minutes in neutralization buffer (1.5 M NaCl, 0.5 M Tris-HCl, pH 8.0) and then probed with a radiolabeled telomeric probe (C-rich) for 16 hours at 42° C. in 5×SSC buffer, 5×Denhardt's solution, 10 mmol/L Na2HPO4, and 1 mmol/L Na2H2P2O7. The gel was washed once with 2×SSC, 0.1% SDS, twice with 0.5×SSC, 0.1% SDS and then twice with 0.5×SSC, 1% SDS at room temperature for 15 min. Gels were exposed to a PhosphorImager screen overnight and analyzed using a Typhoon PhosphorImager scanner system (Molecular Dynamics).
# To determine if 6-thio-dG and 6-thio-G causes progressive telomere shortening, telomere lengths of treated cells were evaluated by TRF assay. Cancer HCT116 and normal BJ fibroblast cells were treated with 1 μM or 10 μM of 6-thio-dG for 1-12 weeks every 3 days. In addition, HCT116 cells were also treated with 1 μM or 10 μM 6-thio-G for 1-10 weeks every 3 days to determine if there is any effect of this molecule on telomeric length maintenance. The control was untreated. Each week samples were collected for TRF analysis at 1×10^6 cells/sample at 1, 5, and 12 weeks for cells treated with 6-thio-dG and 1, 5, and 10 for cells treated with 6-thio-G.
# HCT116 cells were treated with either 10 μM 6-thio-dG alone for 12-16 weeks, or with 3 μM GRN163L alone for 11 weeks. Then, these long term 6-thio-dG treated surviving cells were cultured with a combination of 6-thio-dG (10 μM) and/or GRN163L (3 μM) for 2-4 additional weeks. […] Specifically, the HCT116 cells were treated beyond the 12 weeks of 6-thio-dG treatment with either GRN163L only or GRN163L+6-thio-dG, for an additional 2 and 4 weeks to determine if there is an effect on telomere length.
# [5] = Toxicity testing in rats; assay type: in vivo; settings: for mortality: rats
# Experimental: Six rats were treated with 15 mg of 6-thio-dG/kg of body weight every two days. […] Another 5 rats were treated with 50 mg of 6-thio-dG/kg of body weight every other day. All rats died after 12 days.
# [6] = tested on: HCT116 cells; experiment: TIF assay, gamma-H2AX and TRF2 immuno-staining; assay type: cell-based, human; settings: HCT116, 3 μM
# Experimental: Briefly, HCT116 cells were plated in 4-well chamber slides and after the cells attached to the surface, either 3 μM 6-thio-dG or 3 μM 6-thio-G was added to the medium at different time points (0, 30 min, 12 h, 24 h, 48 h, 72 h). […] TIFs were quantified using Imaris software.
# Cancer HCT116 cells were seeded in chamber slides. Following cell attachment, 6-thio-dG (3 μM) and 6-thio-G (3 μM) were added to fresh medium at various time points (0, 30 min, 2 h, 12 h, 24 h, 48 h, 72 h). To test if 6-thio-dG and 6-thio-G cause telomere dysfunction in cancer cells, TIF analysis was conducted. […] 6-thio-dG treatment causes a 2.8-fold increase in telomeric DNA damage as compared to 6-thio-G after 72 h (FIG. 4).
# [7] = tested on: HCT116 cells; experiment: Cell count and morphology after one week of treatment; assay type: cell-based, human; settings: 3 μM, twice during one week
# From the text: HCT116 represents a human colon cancer cells, A549 models human lung epithelial cancer cells, H2882 models human lung epithelial cancer cells, HCC2429 models human lung epithelial cancer cells, HCC827 models human lung epithelial cancer cells, HCC15 models human lung epithelial cancer cells, H2087 models human lung epithelial cancer cells, HCC4017 models human lung epithelial cancer cells, HCC515 models human lung epithelial cancer cells, H2009 models human lung epithelial cancer cells, BJ-hTERT cells model telomerase expressing normal human fibroblast cells, and BJ human fibroblasts (telomerase silent) were grown in a Media X (Hyclone, Logan, Utah) supplemented with 10% cosmic calf serum (Hyclone).
# Cancer HCT116 and normal BJ fibroblast cells were treated with 6-thio-dG (3 μM) and 6-thio-G (3 μM) twice during one week. Following one week of the treatment, cell morphology was monitored, and then the cells were collected and counted.
Compound,histology of the residual tumors [1],telomere shortening (TRF) compared to untreated control [2],"mortality ([3]; WT mice, 5 mg/kg daily, by the 15th day of treatment)","weight lost ([3]; mouse, in vivo, 5 mg/kg)","telomere length on continued treatment ([4]; HCT116, 10 μM, 12 weeks versus 16 weeks)","telomere shortening (TRF) ([4]; HCT116, 1 or 10 μM every 3 days, one week and five weeks)","telomere length after return to medium without drug ([4]; HCT116, 12 weeks 6-thio-dG, then no drug for 2-4 weeks)","signs of impaired function in remaining animals ([5]; rat, in vivo, 15 mg/kg)","mortality ([5]; 15 mg/kg every two days, after 6 injections, six rats)","mortality ([5]; 50 mg/kg every other day, after 12 days, 5 rats)",rate of tumor growth (tumor volume) compared to the control and 6-thio-G [1],genomic DNA damage compared to 6-thio-G [6],cell count / cell death [7],"telomere shortening (TRF) compared to the control ([4]; HCT116, 3 μM alone, after 11 weeks)","telomere shortening compared with cells cultured with 6-thio-dG for 12, 14 and 16 weeks ([4]; HCT116, after 12 weeks of 10 μM 6-thio-dG, additional 2 and 4 weeks of treatment)"
"Nc1nc2nc[nH]c2c(=S)[nH]1 [6-thio-G, 6-thioguanine, reference compound]",mostly “healthy” growing cancerous cells,did not show enhanced telomere shortening,all mice died,around 2 grams,,,,,,,,,,,
"Nc1nc2c(ncn2[C@H]2C[C@H](O)[C@@H](CO)O2)c(=S)[nH]1 [6-thio-dG, 6-thio-deoxyguanosine]",mostly fibrotic and often associated with apoptotic and inflammatory cells,did not show enhanced telomere shortening,,,stabilized telomeres,telomere shortening was detectable,remained about the same,no signs of impaired function,One rat died,All rats died,rate of tumor growth was less,overall increase in genomic DNA damage,death of the vast majority of HCT116 cells,,
"GRN163L: 13-mer thio-phophoramidate oligonucleotide 5′-TAGGGTTAGACAA-3′ with polmitoyl group at the 5′-end; direct competitive inhibitor of telomerase (all [tNP], 5' {Palm}, sugars by position and methylation of C not given here) [reference compound]",,,,,,,,,,,,,,did not show any significant telomere shortening,increased telomere shortening
